ChEMBL document CHEMBL2417368, “Structure-based discovery of novel amide-containing nicotinamide phosphoribosyltransferase (nampt) inhibitors” (J Med Chem, 2013)
Calls of active or inactive are those of the source. No cut-off for these calls is given here.

Tests used:
[1] = Fraction unbound in human plasma at 5 uM after 4 hrs by LC-MS/MS analysis; type: ADME, cell-free
[2] = Intrinsic clearance in CD-1 mouse hepatocytes at 1 uM after 10 mins by LC-MS/MS analysis; type: ADME, cell-based, Hepatocyte; details: read-out: CLH
[3] = (§1) Metabolic stability in mouse liver microsomes assessed as compound remaining at 1 uM after 30 mins LC-MS analysis; type: ADME, Microsome; details: liver microsomes, read-out: Stability
[4] = Intrinsic clearance in human hepatocytes at 1 uM after 10 mins by LC-MS/MS analysis; type: ADME, cell-based, Hepatocyte; details: read-out: CLH
[5] = (§2) Metabolic stability in human liver microsomes assessed as compound remaining at 1 uM after 30 mins LC-MS analysis; type: ADME, Microsome; details: liver microsomes, read-out: Stability
[6] = Fraction unbound in mouse plasma at 5 uM after 4 hrs by LC-MS/MS analysis; type: ADME, cell-free
A2780 = assay: cells; details: Homo sapiens, A2780, 72 h
in vitro = details: dog, MDCK
[7] = AUC (infinity) in NCR nude mouse at 10 mg/kg, po; type: ADME, organism-based; design: time infinity, dose 10 mg/kg, route oral; details: plasma
[8] = Tmax in NCR nude mouse at 10 mg/kg, po; type: ADME, organism-based; design: dose 10 mg/kg, route oral; details: in vivo
MIA PaCa-2 = assay: Antiproliferative activity against human MIAPaCa2 cells assessed as cell viability after 72 hrs; type: functional, cell-based; details: MIA PaCa-2, 72 h
U-251 [9] = assay: Antitumor activity against human U251 cells xenografted in athymic nu/nu mouse assessed as reduction in tumor size at 25 mg/kg, po QD for 7 days measured on day 13; type: functional, organism-based; design: dose 25 mg/kg
HCT-116 = assay: Antiproliferative activity against human HCT116 cells assessed as cell viability after 72 hrs; type: functional, cell-based; details: HCT-116, 72 h
[10] = Oral bioavailability in NCR nude mouse at 10 mg/kg; type: ADME, organism-based; details: in vivo
[11] = Volume of distribution at steady state in NCR nude mouse at 5 mg/kg, iv; type: ADME, organism-based; design: dose 5 mg/kg, route intravenous; details: in vivo, read-out: Vdss
[12] = Clearance in NCR nude mouse plasma at 5 mg/kg, iv; type: ADME, organism-based; design: dose 5 mg/kg, route intravenous
[13] = Cmax in NCR nude mouse at 10 mg/kg, po; type: ADME, organism-based; design: dose 10 mg/kg, route oral; details: in vivo
HT-1080 = assay: Antiproliferative activity against human HT1080 cells assessed as cell viability after 72 hrs; type: functional, cell-based; details: HT-1080, 72 h
Mus musculus = assay: Toxicity in human U251 cells xenografted in athymic nu/nu mouse assessed as change in body weight at 25 mg/kg, po QD for 7 days; type: organism-based, U-251; design: dose 25 mg/kg, route oral; details: in vivo, 168 h
U-251 [14] = assay: Antiproliferative activity against human U251 cells assessed as cell viability after 72 hrs by SRB assay; type: functional, cell-based; details: U-251, 72 h
PC-3 = assay: Antiproliferative activity against human PC3 cells assessed as cell viability after 72 hrs; type: functional, cell-based; details: PC-3, 72 h
[15] = biological target: Nicotinamide phosphoribosyltransferase (Homo sapiens, UniProt P43490)
Liver [16] = assay: as §1; type: ADME, Microsome; details: microsomes, 0.5 h, 1 µM, BLD = below limit of detection
Liver [17] = assay: as §2; type: ADME, Microsome; details: microsomes, 0.5 h, 1 µM, BLD = below limit of detection

Sequence of Nicotinamide phosphoribosyltransferase (P43490 whole entry): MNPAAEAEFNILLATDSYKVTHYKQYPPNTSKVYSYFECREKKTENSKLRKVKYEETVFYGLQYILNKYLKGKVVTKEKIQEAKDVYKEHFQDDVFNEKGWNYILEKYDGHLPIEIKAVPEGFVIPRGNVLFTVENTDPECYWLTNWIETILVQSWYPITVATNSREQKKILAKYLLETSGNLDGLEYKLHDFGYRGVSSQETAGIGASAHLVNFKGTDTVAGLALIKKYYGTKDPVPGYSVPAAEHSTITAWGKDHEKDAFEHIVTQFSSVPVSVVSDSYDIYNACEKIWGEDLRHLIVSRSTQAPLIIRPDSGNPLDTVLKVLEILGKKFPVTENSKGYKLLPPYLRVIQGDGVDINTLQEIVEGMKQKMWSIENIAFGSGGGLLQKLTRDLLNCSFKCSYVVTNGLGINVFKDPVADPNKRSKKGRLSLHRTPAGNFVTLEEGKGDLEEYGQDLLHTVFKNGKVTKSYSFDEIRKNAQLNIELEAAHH

Structure (SMILES)	fraction unbound at 4 h, 5 µM [1]	CLint scaled at 1 µM [2] [L/h/kg]	remaining at 0.5 h, 1 µM [3] [%]	CLint scaled at 1 µM [4] [L/h/kg]	remaining at 0.5 h, 1 µM [5] [%]	fraction unbound at 4 h, 5 µM [6]	IC50 (A2780) [nM]	Papp A→B at 10 µM (in vitro) [nm/s]	IC50 [15] [nM]	also measured
O=C(NCc1ccc(S(=O)(=O)c2cccc(C(F)(F)F)c2)cc1)c1cc2ccncc2s1	0.004	4.38	35	0.84	43	0.002	1	80		
O=C(NCc1ccc(S(=O)(=O)c2cc(F)cc(F)c2)cc1)c1ccc2nccn2c1	0.06	2.52	39	0.6	53	0.067	2	120		AUC(0-inf) [7]: 3.06 µM·h; Tmax [8]: 15 min; IC50 (MIA PaCa-2): 7.4 nM; Activity (U-251 [9]): Active; IC50 (HCT-116): 2 nM; bioavailability [10]: 41.1%; Vd [11]: 6.7 L/kg; clearance [12]: 3.14 L/h/kg; Cmax [13]: 1.21 µM; IC50 (HT-1080): 2.1 nM; Activity (Mus musculus): Non-toxic; IC50 (U-251 [14]): 1.8 nM; IC50 (PC-3): 2.7 nM
O=C(NCc1ccc(S(=O)(=O)c2ccc(N3CCOCC3)nc2)cc1)c1cnc2nccn2c1	0.028	4.14	86	0.36	86	0.12	2	3	1	
O=C(NCc1ccc(S(=O)(=O)c2cccc(C(F)(F)F)c2)cc1)c1cc2ccncc2o1	0.01	1.5	64	0.6	48	0.011	3	130	5	
Cn1c(C(=O)NCc2ccc(S(=O)(=O)c3ccccc3)cc2)cc2ccncc21					71		> 10000		410	Stability (Liver [16]): BLD
O=C(NCc1ccc(S(=O)(=O)c2ccc(N3CCOCC3)nc2)cc1)c1cc2cnccc2[nH]1	0.011	3.42	72		75	0.015	1	10	7	
O=C(NCc1ccc(S(=O)(=O)N2CCCCC2)cc1)c1cc2ccncc2[nH]1					50		1700		1000	Stability (Liver [16]): BLD
O=C(NCc1ccc(S(=O)(=O)c2ccc(N3CCOCC3)nc2)cc1)c1cc2ccncc2o1	0.005	2.88	42	0.84	51	0.017	1	150	3	
N#CN=C(NCCCCCCOc1ccc(Cl)cc1)Nc1ccncc1 [CHS-828]	0.005	1.26	63	0.42	61	0.005		100		
O=C(NCc1ccc(S(=O)(=O)c2cc(F)cc(F)c2)cc1)c1cc2ccncc2s1	0.009	4.68	32	0.96	41	0.011				
O=C(NCc1ccc(S(=O)(=O)N2CCCCC2)cc1)c1ccc2ncsc2c1					24		> 10000		37	Stability (Liver [16]): BLD
O=C(NCc1ccc(S(=O)(=O)N2CCCCC2)cc1)c1cc2cnccc2s1					15		1600		150	Stability (Liver [16]): BLD
O=C(NCc1ccc(S(=O)(=O)c2ccc(N3CCOCC3)nc2)cc1)c1ccc2nccn2c1	0.012	2.58	75	0.6	65	0.025	1	30	6	
O=C(NCc1ccc(S(=O)(=O)c2cccc(C(F)(F)F)c2)cc1)c1cc2cnccc2[nH]1	0.006	3.6	49	0.6	81	0.007	3	50	8	
O=C(NCc1ccc(S(=O)(=O)c2cc(F)cc(F)c2)cc1)c1cc2cnccc2[nH]1		4.2	63	0.42	82			120		
O=C(/C=C/c1cccnc1)NCCCCC1CCN(C(=O)c2ccccc2)CC1 [DAPORINAD]	0.007	4.02	7.7	0.9	46.7	0.033		150		
O=C(NCc1ccc(S(=O)(=O)c2cc(F)cc(F)c2)cc1)c1cnc2nccn2c1	0.122	4.44	71	0.36	78	0.133	3	50		
O=C(NCc1ccc(S(=O)(=O)N2CCCCC2)cc1)c1cc2cccnc2s1							> 10000		8	Stability (Liver [16]): BLD; Stability (Liver [17]): BLD
